# In USRE48461E1, “Modulation of androgen receptor expression” (Ionis Pharmaceuticals, Inc., priority 2012, dated 2021):
# Several values for one entry are separate records, joined by “and”; a condition that tells them apart may be missing. Equal values may be shown once. Oligonucleotides are written 5' to 3', each unit as a sugar letter and its base; * is a phosphorothioate linkage, no mark a phosphodiester; rarer units and linkages stand in square brackets, end groups in braces. Plain capitals give the bases only. k = constrained ethyl (cEt); [5mC] = 5-methylcytosine; d = 2'-deoxy (DNA)
# Assays:
# [1] = system: AR mRNA; assay: Dose-dependent antisense inhibition of human AR in HuVEC cells (electroporation, qRT-PCR RTS3559, IC50); assay type: cell-based; settings: HuVEC, electroporation, approximately 16 hours
# Outline: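 HuVEC cells dosed with antisense oligonucleotides by electroporation and treated approximately 16 hours. AR mRNA quantified by real-time qPCR with primer probe set RTS3559 and normalised to total RNA by RIBOGREEN; IC50 from dose-response.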
# [2] = system: AR mRNA; assay: Antisense inhibition of human AR in HuVEC cells, single concentration (electroporation, qRT-PCR RTS3559); assay type: cell-based; settings: electroporation, approximately 24 hours, relative to untreated control
# Outline: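 AR mRNA levels were measured with human primer-probe set RTS3559 and adjusted for total RNA (RIBOGREEN). Cells were HuVEC, with each antisense oligonucleotide delivered by electroporation at one concentration.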
# [3] = Table 20, 500 nM oligonucleotide
Substance,"percent inhibition of AR, 46.9 nM ([1]; Table 33)","percent inhibition of AR, 187.5 nM ([1]; Table 33)","percent inhibition of AR, 750.0 nM ([1]; Table 33)","percent inhibition of AR, 3000.0 nM ([1]; Table 33)",IC50 ([1]; Table 33),"% inhibition [2, 3]","percent inhibition of AR, 46.9 nM ([1]; Table 32)","percent inhibition of AR, 187.5 nM ([1]; Table 32)","percent inhibition of AR, 750.0 nM ([1]; Table 32)","percent inhibition of AR, 3000.0 nM ([1]; Table 32)",IC50 ([1]; Table 32),other results
583821 (k[5mC]*kA*kG*dA*dA*dA*dT*dG*dG*dT*d[5mC]*dG*dA*kA*kG*kT) [compound 583821],,,,,,,,,,,,"percent inhibition of AR, 46.9 nM ([1]; Table 31): 11%; percent inhibition of AR, 187.5 nM ([1]; Table 31): 35%; percent inhibition of AR, 750.0 nM ([1]; Table 31): 61%; percent inhibition of AR, 3000.0 nM ([1]; Table 31): 77%; IC50 ([1]; Table 31): 460 nM; % inhibition ([2]; Table 19, 500 nM oligonucleotide): 42%"
583833 (kT*kG*kT*dT*d[5mC]*d[5mC]*d[5mC]*d[5mC]*dT*dG*dG*dA*d[5mC]*kT*k[5mC]*kA; antisense) [compound 583833],26%,43%,70%,74%,260 nM,37%,,,,,,
583834 (kA*kG*k[5mC]*dT*dG*dT*dT*d[5mC]*d[5mC]*d[5mC]*d[5mC]*dT*dG*kG*kA*k[5mC]; antisense) [compound 583834],,,,,,52%,34%,54%,73%,84%,130 nM,
583835 (kG*kA*kA*dG*d[5mC]*dT*dG*dT*dT*d[5mC]*d[5mC]*d[5mC]*d[5mC]*kT*kG*kG; antisense) [compound 583835],,,,,,44%,20%,55%,74%,88%,190 nM,
583836 (k[5mC]*k[5mC]*kG*dA*dA*dG*d[5mC]*dT*dG*dT*dT*d[5mC]*d[5mC]*k[5mC]*k[5mC]*kT; antisense) [compound 583836],,,,,,37%,11%,27%,67%,86%,390 nM,
583843 (kG*kT*kA*d[5mC]*dA*dT*dG*d[5mC]*dA*dA*dT*d[5mC]*d[5mC]*k[5mC]*k[5mC]*k[5mC]; antisense) [compound 583843],22%,40%,67%,85%,300 nM,35%,,,,,,
583847 (kA*k[5mC]*kA*dG*d[5mC]*dG*dG*dG*dT*dG*dG*dA*dA*k[5mC]*kT*k[5mC]; antisense) [compound 583847],8%,30%,60%,84%,460 nM,34%,,,,,,
583850 (kG*kG*kA*d[5mC]*dG*d[5mC]*dA*d[5mC]*dA*dG*d[5mC]*dG*dG*kG*kT*kG; antisense) [compound 583850],,,,,,38%,9%,21%,54%,78%,600 nM,
583851 (kG*kT*kG*dG*dG*dA*d[5mC]*dG*d[5mC]*dA*d[5mC]*dA*dG*k[5mC]*kG*kG; antisense) [compound 583851],8%,24%,54%,76%,610 nM,33%,,,,,,
583853 (kT*kG*k[5mC]*dA*dT*dT*d[5mC]*dG*dG*d[5mC]*d[5mC]*dA*dA*kT*kG*kG; antisense) [compound 583853],24%,51%,70%,80%,210 nM,33%,,,,,,
583855 (k[5mC]*k[5mC]*kT*dT*dT*dG*d[5mC]*dA*dT*dT*d[5mC]*dG*dG*k[5mC]*k[5mC]*kA; antisense) [compound 583855],,,,,,44%,22%,50%,81%,91%,180 nM,
583856 (kA*kA*k[5mC]*d[5mC]*dT*dT*dT*dG*d[5mC]*dA*dT*dT*d[5mC]*kG*kG*k[5mC]; antisense) [compound 583856],,,,,,45%,31%,55%,74%,89%,140 nM,
583862 (kG*k[5mC]*kT*d[5mC]*dT*dT*dG*d[5mC]*d[5mC]*dT*dG*d[5mC]*dG*k[5mC]*kT*kG; antisense) [compound 583862],15%,37%,64%,79%,410 nM,32%,,,,,,
583864 (k[5mC]*kA*kG*dT*dG*d[5mC]*dT*d[5mC]*dT*dT*dG*d[5mC]*d[5mC]*kT*kG*k[5mC]; antisense) [compound 583864],,,,,,46%,,,,85%,,"percent inhibition of AR, 187.5 nM ([1]; Table 32, 0.1875 µM): 49% and 47%; percent inhibition of AR, 750.0 nM ([1]; Table 32, 0.75 µM): 72% and 62%"
583865 (kT*kT*k[5mC]*dA*dG*dT*dG*d[5mC]*dT*d[5mC]*dT*dT*dG*k[5mC]*k[5mC]*kT; antisense) [compound 583865],,,,,,45%,33%,42%,68%,85%,190 nM,
583866 (kT*k[5mC]*kT*dT*d[5mC]*dA*dG*dT*dG*d[5mC]*dT*d[5mC]*dT*kT*kG*k[5mC]; antisense) [compound 583866],17%,48%,71%,91%,240 nM,32%,,,,,,
